Test system: S. cerevisiae
Assay: Toxicity of organic phase (overlay/underlay) compounds to growth of the host strain
Details: for toxicity to growth: compound as organic phase
Excerpt: In-situ liquid-liquid extraction (biphasic fermentation) is a strategy that can be employed in accordance with the present invention for physical separation of product from microorganisms via partitioning into the water immiscible organic liquid phase from an aqueous culture phase. The organic liquid phase or organic phase is present as either an overlay if its density is less than that of the aqueous phase, or an underlay if its density is greater than that of the aqueous phase. Certain properties of the overlay or underlay are considered for production of olivetolic acid/olivetol and other resorcinols such as of formulas IA and IB: (1) non-toxic or low toxicity for growth of the host strain, and/or (2) a favorable partitioning coefficient of the product in the organic phase vs. the aqueous phase, and/or (3) preferably a lower partition coefficient for fed hexanoic acid (for olivetolic acid/olivetol) or other fatty acid such as RCO2H (for other resorcinols) in the organic phase vs. the aqueous phase. Additional properties of the organic phase enhance its suitability for downstream conversion, e.g. and without limitation, to cannabigerol and other cannabinoid compounds, including suitability as a solvent or co-solvent during downstream prenylation or other reactions, and boiling point if downstream separation by distillation is employed.

“2,2,4-trimethyl-1,3-pentanediol monoisobutyrate [Texanol]” was tested, and the toxicity to growth (under the test conditions) was “inhibitory to growth”.
For `CCCCCCCCCCO` [Decanol], the toxicity to growth (under the test conditions) was “toxic to growth”.
With `CCCCOC(=O)CCCCCCCCC(=O)OCCCC` [Dibutyl sebacate] the toxicity to growth (under the test conditions) was “completely non-inhibitory to growth”.
With `CCCCCCCCCCCCCC(=O)OC(C)C` [IPM, isopropyl myristate] the toxicity to growth (under the test conditions) was “non-toxic”.
In the case of `CCCCCCCC(=O)OC(C)C` [Isopropyl octanoate], the toxicity to growth (under the test conditions) is reported as “moderately inhibitory but allowed for some growth”.
For `CCCCCCCC(=O)OCC(COC(=O)CCCCCCC)OC(=O)CCCCCCC` [Tricaprylin], the toxicity to growth (under the test conditions) was “fairly toxic, however allowed some growth of strains”.
In the case of `CCCCCCCCCCCC(=O)OCCCC` [butyl laurate], the toxicity to growth (under the test conditions) is reported as “non-toxic”.
`CC(C)(C)OC(=O)CC(=O)OC(C)(C)C` [di-tert-butyl malonate] was tested, and the “toxicity toward growth of mixtures” value (1-10% (v/v), particularly 1-2.5% (v/v), in IPM and isopar M) was “much lower toxicity”, the toxicity to growth (with galactose addition) was “appearing toxic or to induce substantial lag” and the toxicity to growth (with glucose addition) was “supported growth of all strains”.
For `CCCCOC(=O)CCCCC(=O)OCCCC` [dibutyl adipate], the toxicity to growth (under the test conditions) was “no apparent toxicity”.
In the case of `CCOC(=O)C(CC)(CC)C(=O)OCC` [diethyl diethylmalonate], the toxicity to growth (with galactose addition) is reported as “substantial lag” and the toxicity to growth (with glucose addition) is reported as “modest growth by most strains”.
With `CCOC(=O)CCCCCCCCC(=O)OCC` [diethyl sebacate] the toxicity to growth (under the test conditions) was “moderately growth inhibitory”, the toxicity to growth (with galactose addition) was “substantial lag” and the toxicity to growth (with glucose addition) was “modest growth by most strains”.
For `CC(C)OC(=O)CCCCC(=O)OC(C)C` [diisopropyl adipate], the toxicity to growth (under the test conditions) was “Growth was observed”.
For `CCCCCCCCCCCC` [dodecane], the toxicity to growth (under the test conditions) was “Lack of toxicity”.
`CCCCCCCCCC(=O)OCC` [ethyl decanoate] was tested, and the toxicity to growth (under the test conditions) was “increasingly non-toxic”.
With `CCCCCCCCCCCC(=O)OCC` [ethyl laurate] the toxicity to growth (under the test conditions) was “non-toxic”.
For `CCCCCCCCCCCCCC(=O)OCC` [ethyl myristate], the toxicity to growth (under the test conditions) was “non-toxic”.
In the case of `CCCCCCCCCCCCCCCC` [hexadecane], the toxicity to growth (under the test conditions) is reported as “Lack of toxicity”.
With `CCCCCCOC(=O)CCCCC` [hexyl hexanoate] the toxicity to growth (under the test conditions) was “moderately non-toxic”.
In the case of `CCCCCCCCCC(=O)OC` [methyl decanoate], the toxicity to growth (under the test conditions) is reported as “moderately inhibitory to growth but still allowed for growth”.
For `CCCCCCCCCCCCCC(=O)OC` [methyl myristate], the toxicity to growth (under the test conditions) was “non-toxic”.
In the case of `CCCCCCCCOC(C)=O` [octyl acetate], the toxicity to growth (under the test conditions) is reported as “toxic”.
In the case of `CCCCCCCC/C=C\CCCCCCCCO` [oleyl alcohol], the toxicity to growth (under the test conditions) is reported as “supported robust growth”.
In the case of `CCCCCCCCCCCCCC` [tetradecane], the toxicity to growth (under the test conditions) is reported as “Lack of toxicity”.
